Reference: PubChem BioAssay AID1648 (Sanford-Burnham Center for Chemical Genomics, 2009)
Calls of active or inactive are those of the source. No rule for the calls is given here.

Target: Serine/threonine-protein kinase mTOR (Homo sapiens) (UniProt P42345)
Assay: binders of mTOR FRB domain, biophysical, NMR (AID 1648)
Conditions: NMR binding to FRB domain, chemical shift

Serine/threonine-protein kinase mTOR (Homo sapiens), sequence (P42345 2015-2114): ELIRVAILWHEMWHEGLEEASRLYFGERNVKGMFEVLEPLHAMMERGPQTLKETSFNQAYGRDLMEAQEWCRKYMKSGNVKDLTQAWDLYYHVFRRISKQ

Compound	Kd
CSc1nc(NC(C)(C)C)nc(N2CCOCC2)n1	> 4 mM (inactive)
O=C1NCCCC1C(=O)N/N=C/c1ccccc1 (stereo not given)	> 4 mM (inactive)
COc1cc(O)c(C)c(O)c1	> 4 mM (inactive)
Cc1cccc(N2C(=O)CCC2=O)n1	> 4 mM (inactive)
CN1C(CC(=O)c2ccccc2)CCCC1CC(O)c1ccccc1 (stereo not given)	> 4 mM (inactive)
Nc1nc(O)c(C2=c3cc(Cl)ccc3=NC2=O)s1	> 4 mM (inactive)
CC(=O)Nc1cccc(Cn2cccn2)c1	> 4 mM (inactive)
Oc1ccc(-n2ccnc2)cc1	> 4 mM (inactive)
NC(=O)Cn1cnc(-c2ccc(F)cc2)c1	> 4 mM (inactive)
COc1ccc(C2CC(=O)c3ccc(OC)cc3O2)cc1 (stereo not given)	> 4 mM (inactive)
COc1cc2c(cc1O)CC1c3c(cc(O)c(OC)c3-2)CCN1C (stereo not given)	> 4 mM (inactive)
O=C1CN(C(=O)c2ccccc2)c2ccccc2N1	> 4 mM (inactive)
NC(=O)CS(=O)(=O)c1ccc(Cl)cc1	> 4 mM (inactive)
CCOC(=O)c1ccc(Oc2ccc(C)nn2)cc1	> 4 mM (inactive)
NC(=O)c1c(Cl)nsc1-c1ccccc1Cl	> 4 mM (inactive)
CNC(=S)Nc1ccc(C(=O)O)cc1	> 4 mM (inactive)
Cc1[nH]n(-c2ccccc2)c(=O)c1[N+](=O)[O-]	> 4 mM (inactive)
OCC1Cc2ccccc2CN1 (stereo not given)	> 4 mM (inactive)
O=C1CC(c2ccccc2)n2ncnc2N1 (stereo not given)	> 4 mM (inactive)
O=c1cnnc(N2CCCCC2)[nH]1	> 4 mM (inactive)
Cc1nccc2c1[nH]c1ccccc12	> 4 mM (inactive)
Nc1nnc(SCc2ccc(F)cc2Cl)s1	> 4 mM (inactive)

Compound	Kd
COc1ccc2cc1Oc1ccc(cc1)C[C@H]1c3c(cc4c(c3Oc3cc5c(cc3OC)CCN(C)[C@@H]5C2)OCO4)CCN1C	> 4 mM (inactive)
COC(=O)c1cc(-c2c[nH]c3ccccc23)n[nH]1	> 4 mM (inactive)
O=C(CCc1n[nH]c(=O)[nH]c1=O)NCc1ccccc1	> 4 mM (inactive)
Cc1nn(-c2ccccc2)nc1C(N)=O	> 4 mM (inactive)
CCOC(=O)CSc1nnc(C)c(=O)[nH]1	> 4 mM (inactive)
O=C(Nc1nnc(C(F)(F)F)s1)c1cccnc1	> 4 mM (inactive)
N#Cc1c(N)c(C(=O)c2ccccc2)n2c1CCC2	> 4 mM (inactive)
Cc1n[nH]c(C)c1NC(=O)c1cccc(F)c1	> 4 mM (inactive)
O=C(NCc1ccccn1)c1ccc(Br)s1	> 4 mM (inactive)
COc1ccccc1NC(=O)c1cc[n+]([O-])cc1	> 4 mM (inactive)
CC(C)CCCC(C)[C@H]1CCC2C3CC=C4C[C@@H](O)CC[C@]4(C)C3CC[C@@]21C (stereo not given in full)	> 4 mM (inactive)
CNC(=O)COc1cccc2c1CCNC2=O	> 4 mM (inactive)
COC(=O)c1cc(C)on1	> 4 mM (inactive)
NC1CSCC1O (stereo not given)	> 4 mM (inactive)
Cn1cnnc1Sc1ncnc(N)c1[N+](=O)[O-]	> 4 mM (inactive)
O=C(NCN1CCOCC1)c1cnccn1	> 4 mM (inactive)
O=C(Nn1cnnc1)c1cccc(C(F)(F)F)c1	> 4 mM (inactive)
CCN1C(=O)c2c(C)nc3ccccc3c2C1=O	> 4 mM (inactive)
Cc1cc(C)n(-c2ccc(Cl)nn2)n1	> 4 mM (inactive)
COc1c2c(cc3occ(-c4ccc5c(c4)OCO5)c(=O)c13)OC(C)(C)C=C2	> 4 mM (inactive)
Cc1cc(NC(=O)CCCn2cnc([N+](=O)[O-])n2)no1	> 4 mM (inactive)
CCNC(=O)CC[C@H](N)C(=O)O	> 4 mM (inactive)

Compound	Kd
Nc1nc(-c2ccccc2)cc(=O)[nH]1	> 4 mM (inactive)
Cc1nn2c3ccccc3nc2n(Cc2ccccc2)c1=O	> 4 mM (inactive)
Cc1cc(C(=O)Nc2cccnc2)cs1	> 4 mM (inactive)
COc1cc2[nH]c(=S)n(C)c(=O)c2cc1OC	> 4 mM (inactive)
O=C1CCC(=O)N1c1cccc([N+](=O)[O-])c1	> 4 mM (inactive)
COc1ccc(C)cc1-n1c(-c2ccncc2)n[nH]c1=S	> 4 mM (inactive)
CC(=O)Nc1ccccc1-c1ccccc1NC(C)=O	> 4 mM (inactive)
Oc1ccccc1N=Cc1cccnc1	> 4 mM (inactive)
S=C(NC1CC1)NN1CCOCC1	> 4 mM (inactive)
O=C(O)Cn1nc(-c2ccccc2)c2ccccc2c1=O	> 4 mM (inactive)
c1ccc(-n2nnnc2Oc2cccc3cccnc23)cc1	> 4 mM (inactive)
Nc1cc(F)nc(F)n1	> 4 mM (inactive)
C#CCCCCCCCCCCCC(O)CC(O)COC(C)=O (stereo not given)	> 4 mM (inactive)
CC(=O)NC12CC3CC(C)(C1)CC(NC(C)=O)(C3)C2	> 4 mM (inactive)
OCc1cccc2c1OCCO2	> 4 mM (inactive)
Cn1ncc(SCc2ccco2)c(Cl)c1=O	> 4 mM (inactive)
COc1cccc(NC(=O)c2cccs2)c1	> 4 mM (inactive)
COC(=O)C[C@@H]1C2(C)C(=O)[C@@H](CC3=C4C=C(OC)O[C@@H](c5ccoc5)[C@]4(C)CCC32)[C@H](O)C1(C)C (stereo not given in full)	> 4 mM (inactive)
Nc1nnc(SCc2cccnc2)s1	> 4 mM (inactive)
Cc1ccc(NC(=O)/C=C2\SC(=O)NC2=O)cc1	> 4 mM (inactive)
Oc1ccccc1N1CCCC1	> 4 mM (inactive)
Fc1ccc(NC2=NCCS2)cc1Cl	> 4 mM (inactive)

Compound	Kd
O=C(/C(=N\O)n1cncn1)c1ccccc1Cl	> 4 mM (inactive)
CC(C)=CCCC1(C)C=Cc2c(O)c3c(c(CC=C(C)C)c2O1)OC12C(=CC4CC1C(C)(C)OC2(C/C=C(/C)C(=O)O)C4O)C3=O (stereo not given)	> 4 mM (inactive)
O=C(O)CCC1=C2c3ccccc3CCN2C(=O)CC1	> 4 mM (inactive)
O=c1[nH]c(=O)c2[nH]cnc2[nH]1	> 4 mM (inactive)
NS(=O)(=O)c1ccc(N2CCCC2=O)cc1	> 4 mM (inactive)
O=S(=O)(Nc1cccnc1Cl)c1ccccc1	> 4 mM (inactive)
NC1=NC(=O)CC(C(=O)Nc2ccccc2)S1 (stereo not given)	> 4 mM (inactive)
COc1ccc(N=C2NC(=O)CS2)cc1	> 4 mM (inactive)
COC(=O)C[C@H]1C(C)(C)C(=O)[C@@H]2CC3=C(CC[C@]4(C)C3=CC(=O)O[C@H]4c3ccoc3)C1(C)C2=O	> 4 mM (inactive)
NC1C2CC3CC1CC(O)(C3)C2 (stereo not given)	> 4 mM (inactive)
C=C1C2CC[C@@]3(C)[C@H](c4ccoc4)OC(=O)C[C@]13O[C@H]1CC(=O)C(C)(C)[C@H](C(O)C(=O)OC)[C@@]21C (stereo not given in full)	> 4 mM (inactive)
O=C1C[C@@H](c2ccc(O)cc2)Oc2cc(O)cc(O)c21	> 4 mM (inactive)
C/C(N)=C/C(=O)N1CCCCC1	> 4 mM (inactive)
Oc1ccc(/C=C/c2cc(O)cc(O)c2)cc1	> 4 mM (inactive)
CC(=O)Nc1cc(N2C(=O)C=CC2=O)ccc1Cl	> 4 mM (inactive)
O=C1c2ccc(F)cc2C(=O)N1CO	> 4 mM (inactive)
C=CCc1ccc(O)c(OC)c1	> 4 mM (inactive)
COc1ccc2ccc(=O)oc2c1	> 4 mM (inactive)
CCC(CCC(C)[C@H]1CCC2C3CC=C4C[C@@H](O)CC[C@]4(C)C3CC[C@@]21C)C(C)C (stereo not given in full)	> 4 mM (inactive)
